The structures appear in SMILES notation. pIC50: −log10 of the molar value. Where a name gives a salt, the structure may show the parent alone.

The values that follow come from patent publication US20030153611A1, “1,3-Diarylprop-2-en-1-ones, compositions containing them and use thereof” (AVENTIS PHARMA S.A., priority 2001, published 2003).

The target in one test is T1, Tubulin (Sus scrofa, UniProt P02550+P02554).
T1 construct: Tubulin is purified from pig brains according to the published methods; from tissue; host or cells: pig brain
T1 sequence (P02550 whole entry): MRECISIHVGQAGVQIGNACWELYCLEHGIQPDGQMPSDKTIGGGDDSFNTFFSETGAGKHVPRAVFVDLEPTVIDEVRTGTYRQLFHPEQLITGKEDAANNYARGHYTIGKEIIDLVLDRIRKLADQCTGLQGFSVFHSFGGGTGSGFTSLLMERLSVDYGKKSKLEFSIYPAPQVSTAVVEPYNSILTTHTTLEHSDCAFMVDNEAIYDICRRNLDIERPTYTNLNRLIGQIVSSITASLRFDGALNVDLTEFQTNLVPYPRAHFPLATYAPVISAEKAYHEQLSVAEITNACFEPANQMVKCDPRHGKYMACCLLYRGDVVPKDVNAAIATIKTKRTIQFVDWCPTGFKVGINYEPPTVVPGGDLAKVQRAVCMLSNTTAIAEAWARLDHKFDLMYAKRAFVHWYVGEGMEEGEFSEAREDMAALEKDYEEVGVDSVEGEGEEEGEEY
T1 sequence (P02554 whole entry): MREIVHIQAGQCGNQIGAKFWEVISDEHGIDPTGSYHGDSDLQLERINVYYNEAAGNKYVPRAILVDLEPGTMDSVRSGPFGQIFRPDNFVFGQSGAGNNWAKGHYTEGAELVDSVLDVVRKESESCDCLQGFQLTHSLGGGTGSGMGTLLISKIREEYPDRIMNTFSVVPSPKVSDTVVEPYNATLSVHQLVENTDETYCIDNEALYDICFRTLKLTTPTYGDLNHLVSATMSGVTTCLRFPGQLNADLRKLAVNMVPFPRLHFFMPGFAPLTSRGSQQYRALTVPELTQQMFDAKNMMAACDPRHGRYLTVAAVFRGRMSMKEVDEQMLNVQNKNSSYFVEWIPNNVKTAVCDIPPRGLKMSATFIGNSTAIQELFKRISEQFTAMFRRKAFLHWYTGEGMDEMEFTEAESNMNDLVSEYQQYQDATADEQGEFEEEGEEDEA
Put plainly: Assessment of the inhibition of tubulin polymerization (turbidimetry). The class given is biochemical, pig. To be noted: tubulin 10 μM, turbidity at 350 nm, 37° C. Here is the method: Tubulin is purified from pig brains according to the published methods (Shelanski et al., 1973, Proc. Natl, Acad. Sci. USA, 70, 765-768. Weingarten et al., 1975, Proc. Natl, Acad. Sci. USA, 72, 1858-1862). Briefly, the brains are ground and centrifuged in an extraction buffer. The tubulin, contained in the extract supernatant, is subjected to two successive cycles of polymerization at 37° C. and depolymerization at 4° C., before being separated from the MAPs (Microtubule Associated Proteins) by chromatography on a phosphocellulose P11 column (Whatman). The tubulin thus isolated is more than 95% pure. It is stored in a buffer known as RB/2 30% glycerol, the composition of which is MES-NaOH [2-(N-morpholino)ethanesulfonic acid] 50 mM, pH 6.8; MgCl2 0.25 mM; EGTA 0.5 mM; 30% glycerol (v/v), GTP (guanosine 5′-triphosphate) 0.2 mM.
The polymerization of the tubulin into microtubules is monitored by turbidimetry as follows; the tubulin is adjusted to a concentration of 10 μM (1 mg/ml) in the RB/2 30% glycerol buffer, to which is added 1 mM GTP and 6 mM MgCl2. The polymerization is initiated by increasing the temperature from 6° C. to 37° C. in a cuvette with a 1 cm optical pathlength, placed in a Uvikon 931 spectrophotometer (Kontron) equipped with a thermostatically-regulated cuvette holder. The increase in the turbidity of the solution is monitored at 350 nm.
The products are dissolved at 10 mM in DMSO and added at variable concentrations (0.5 to 10 μM) to the tubulin solution before polymerization. The IC50 value is defined as the concentration of product which inhibits 50% of the rate of polymerization. A product whose IC50 value is less than or equal to 3 μM is considered as very active.

A further test deals with HeLa cells. Put plainly: Inhibition of proliferation of HeLa cells ([14C]-thymidine incorporation). Format: cell-based. The conditions noted are these: Homo sapiens, incubation for 48 hours, read-out: Inhibition of cell proliferation IC50 HeLa. Here is the method: The proliferation of HeLa cells is assessed by measuring the incorporation of [^14C]-thymidine in the following way. The HeLa cells (epithelial tumor cells of human origin) are cultured in a DMEM medium (Gibco) which contains 10% fetal calf serum and antibiotics (1% penicillin, 1% streptomycin). To carry out the proliferation test, the cells are inoculated into 96-well cytostar microplates (Amersham), at a rate of 5 000 cells per well. [^14C]-thymidine (0.1 μCi/well) and the products to be assessed are then added. Variable concentrations of products up to 10 μM are used; the DMSO (solvent used to dissolve the products) should not exceed 0.5% in the medium. After incubation for 48 hours at 37° C., the radioactivity incorporated into the cells is measured by counting the plate in a TRI-LUX counter (Wallac). The IC50 value is defined as the concentration of product which reduces the radioactivity by 50% relative to an untreated control. A product whose IC50 value is less than 1 μM is considered as cytotoxic.
A general note: Dividing cells build labelled thymidine or BrdU into new DNA.

The next test has as its system HDMEC cells. Put plainly: Detachment effect on HDMEC endothelial cells. The class given is cell-based, Human. The conditions noted are these: treatment for two hours.
Description: A test to determine the detachment of endothelial cells was established in order to select the products on the basis of their “in vitro” activity. This test for determining the endothelial cell detachment is characterized in that the endothelial cells, inoculated in plates which are coated at the bottom with a binder, e.g., chosen from gelatin, fibronectin or vitronectin, after culturing, are supplemented with a medium containing the test compound, and the cells are then labeled with a fluorescent substance, the cells which become detached are removed by washing and the fluorescence of the remaining cells is counted in a fluorimeter.
This test consists in measuring the detachment of endothelial cells cultured on substrates based on a binder, e.g., chosen from fibronectin, vitronectin and gelatin. One day after inoculating the cells in plates containing 96 wells, for example, the culture medium is replaced with a medium containing the test compound in the absence of serum. The same preparation is prepared six times at three different concentrations ([…]) and the control without addition of antivascular product is prepared six times. After treatment for two hours with the test substance, the cells are labeled with calcein-AM (1.6 μg/ml) in a culture medium supplemented with 0.1% BSA. The cells which become detached are removed by washing with the culture medium containing 0.1% bovine serum albumin; 100 μl of medium are added to each well. The fluorescence of the remaining cells is counted in a fluorimeter. The data obtained are expressed relative to the control (untreated cells).
(§1) The assessment of the detachment of the endothelial cells in vitro is determined in the following way. HDMEC cells (Human Dermal Microvascular Endothelial Cells, Promocell, c-122102) are cultured in an ECGM-MV medium containing 5% fetal calf serum, growth factors (EGF 10 ng/ml, hydrocortisone 1 μg/ml, 0.4% growth supplement with heparin) and antibiotics (amphotericin 50 ng/ml, gentamicin 50 μg/ml). For the detachment test, the HDMECs are inoculated at a rate of 5 000 cells in clear-bottomed 96-well plates (Costar) precoated with fibronectin (10 μg/ml) or vitronectin (1 μg/ml) or gelatin. Twenty-four hours later, the culture medium is replaced with 0.1% BSA ECGM-MV medium containing the indicated products. The test concentrations are 0.1-0.3 and 1 μM for each product. After treatment for two hours, the cells are labeled for 1 hour with calcein (1.6 μg/ml, Molecular Probes) in 0.1% BSA ECGM-MV medium. The detached cells are then removed by washing with 0.1% BSA ECGM-MV medium; 100 μl of medium are added to each well. The fluorescence of the cells which remain attached to the substratum of the well is counted using a fluorimeter, Spectrafluor Plus (Tecan, excitation at 485 nm, and emission at 535 nm). The data are the average of six different samples and are expressed as a percentage of the control (untreated cells).
A cell detachment effect of greater than or equal to 15% is considered as significant.
as §1, with “(amphotericine” for “(amphotericin”, “The detached cells are then removed by washing with 0.1% BSA ECGM-MV medium; 100 μl of medium are added to each well. The fluorescence of the cells which remain attached to the substratum of the well is counted using a fluorimeter, Spectrafluor Plus (Tecan, excitation at 485 nm, and emission at 535 nm). The data are the average of six different samples and are expressed as a percentage of the control (untreated cells).” left out

Another test deals with HDMEC. Put plainly: Inhibition of cell proliferation, HDMEC. Format: cell-based. The conditions noted are these: Homo sapiens.

As to `COc1cc(C(=O)/C(C)=C/c2ccc3[nH]ccc3c2)cc(OC)c1OC` [Example 19, E-2-Methyl-3-(1-H-indol-5-yl)-1-(3,4,5-trimethoxyphenyl)propenone], the pIC50 against Tubulin was 6.10.
The same measure, in the same setting: in the case of `COc1cc(C(=O)/C(C)=C/c2ccc3c(ccn3C)c2)cc2c1OCO2` [Example 16, E-2-Methyl-3-(1-methyl-1-H-indol-5-yl)-1-(3-methoxy-4,5-methylenedioxyphenyl)propenone] it was 6.30; in that of `COc1cc(C(=N/O)/C(C)=C/c2ccc3c(ccn3C)c2)cc(OC)c1OC` [Example 9, E-2-Methyl-3-(1-methyl-1-H-indol-5-yl)-1-(3,4,5-trimethoxyphenyl)propenone E-oxime], 5.46.
Take `COc1ccc(OC)c(C(=O)/C(C)=C/c2ccc(OC)c(N)c2)c1.Cl` [Example 3, E-3-(3-Amino-4-methoxyphenyl)-2-methyl-1-(2,5-dimethoxyphenyl)propenone hydrochloride]: the pIC50 in the test on HeLa cells is above 7.72; with HDMEC, above 7.72; against Tubulin, 6.30. For the same compound, the “Percentage of detachment of HDMEC cells induced with the compound at a concentration of 0.1 μM” value (“Percentage of detachment … of 0.1 μM” for short) in the test on HDMEC cells came to 31%. Moreover, the “Percentage of detachment of HDMEC cells induced with the compound at a concentration of 0.3 μM” value (“Percentage of detachment … of 0.3 μM” for short) with HDMEC cells was found to be 37%. Moreover, in the test on HDMEC cells, the “Percentage of detachment of HDMEC cells induced with the compound at a concentration of 1 μM” value (“Percentage of detachment … of 1 μM” for short) was determined as 34%.
The compound `COc1cc(C(=O)/C(C)=C/c2ccc3c(ccn3CO)c2)cc(OC)c1OC` [Example 21, E-2-Methyl-3-(1-hydroxymethyl-1-H-indol-5-yl)-1-(3,4,5-trimethoxyphenyl)propenone] gave a pIC50 on Tubulin of 6.30.
The same measure, in the same setting: for `COc1ccc(/C=C(\Br)C(=O)c2cc(OC)c(OC)c(OC)c2)cc1N` [Example 4, E-3-(3-Amino-4-methoxyphenyl)-2-bromo-1-(3,4,5-trimethoxyphenyl)propenone] the value was 6.22.
For the compound `COc1ccc(/C=C(\C)C(=O)c2cc(OC)c(OC)c(OC)c2)cc1NC(=O)[C@@H]1CCCN1C` [Example 12, 1-Methylpyrrolidine-2-carboxylic acid {2-methoxy-5-[2-methyl-3-oxo-3-(3,4,5-trimethoxyphenyl)propenyl]phenyl}amide hydrochloride], in the test with HDMEC, the pIC50 is 6.49.
The compound `COc1cc(C(=O)/C(C)=C/c2ccc3c(ccn3CCN(C)C)c2)cc(OC)c1OC` [Example 20, E-2-Methyl-3-[1-(2-dimethylaminoethyl)-1-H-indol-5-yl]-1-(3,4,5-trimethoxyphenyl)propenone hydrochloride] had a pIC50 on Tubulin of 5.70.
Same read-out and setting: in the case of `COc1cc(C(=N\O)/C(C)=C/c2ccc3c(ccn3C)c2)cc(OC)c1OC` [Example 8, E-2-Methyl-3-(1-methyl-1-H-indol-5-yl)-1-(3,4,5-trimethoxyphenyl)propenone Z-oxime] it was 6.10.
For `COc1cc(/C=C(\C)C(=O)c2cc(OC)c(OC)c(OC)c2)ccc1N` [Example 2, E-3-(4-Amino-3-methoxyphenyl)-2-methyl-1-(3,4,5-trimethoxyphenyl)propenone], the pIC50 with HeLa cells was 6.98 to 7.41. Moreover, in the test with HDMEC cells, the “Percentage of detachment … of 0.1 μM” value is 16-21%, the “Percentage of detachment … of 0.3 μM” value was 17-32% and the “Percentage of detachment … of 1 μM” value is 31-49%. Besides, the pIC50 in the test on HDMEC is 8.40 to 8.72. The pIC50 against Tubulin is 5.60.
In the case of `COc1ccc(/C=C(\C)C(=O)c2cc(OC)c(OC)c(OC)c2)cc1NC(=O)[C@@H](N)C(C)C` [Example 15, (S)-2-Amino-3-methylbutanoic acid {2-methoxy-5-[2-methyl-3-oxo-3-(3,4,5-trimethoxy-phenyl)propenyl]phenyl}amide hydrochloride], the pIC50 in the test on HDMEC is 7.22 to 7.52; at Tubulin it was 5.05.
The matching figures for `COc1cc(C(=NO)/C(C)=C/c2ccc3c(ccn3C)c2)cc(OC)c1OC` (mixture of isomers) [Example 7, E-2-Methyl-3-(1-methyl-1-H-indol-5-yl)-1-(3,4,5-trimethoxyphenyl)propenoneoxime]: 6.30 to 6.52 and 5.70.
In the case of `COc1ccc(/C=C(\C)C(=O)c2cc(OC)c(OC)c(OC)c2)cc1NC(=O)[C@@H](N)CCCNC(=N)N[N+](=O)[O-]` [Example 11, 2-Amino-5-[3-(1-nitroguanidino)]-pentanoic acid {2-methoxy-5-[2-methyl-3-oxo-3-(3,4,5-trimethoxy-phenyl)propenyl]phenyl}amide hydrochloride], the pIC50 in the test on HDMEC is 6.40.
For the compound `COc1ccc(/C=C(\C)C(=O)c2cc(OC)c(OC)c(OC)c2)cc1N` [Example 1, E-3-(3-Amino-4-methoxyphenyl)-2-methyl-1-(3,4,5-trimethoxyphenyl)propenone], the pIC50 in the test on HeLa cells is 8.37 to 8.44. Moreover, in the test on HDMEC cells, the “Percentage of detachment … of 0.1 μM” value was 21-36%, the “Percentage of detachment … of 0.3 μM” value is given as 18-38% and the “Percentage of detachment … of 1 μM” value is on record as 37-42%. The same compound had a pIC50 in the test on HDMEC of 8.49 to 8.60. This compound had a pIC50 on Tubulin of 6.52.
